Like-named read-outs stand apart in the source and are kept apart here. Starred links: 1 amine or outer side, 2 acyl side, 3 side chain; linkers in the order of their positions; H or OH if unused. Positions of bridges follow the written chain, without caps; N, C: chain ends. Non-standard residues stand in square brackets, D forms with d. Residues, ends and D or L forms follow the SMILES beside them. *: point of attachment. Phe(4-(CH2)5CO) = O=C([C@H](Cc1ccc(CCCCCC(=O)[*:3])cc1)N[*:1])[*:2]; NMeF = CN[C@@H](Cc1ccccc1)C(=O)O; NMeI = CC[C@H](C)[C@H](NC)C(=O)O; NMeβAla = CN(CCC(=O)[*:2])[*:1]; NMeL = CN[C@@H](CC(C)C)C(=O)O; NMeV = CN[C@H](C(=O)O)C(C)C; NMeA = CN[C@@H](C)C(=O)O; Piperidide = C1CCN(*)CC1; dNMeA = CN[C@H](C)C(=O)O; β3hA = C[C@H](N)CC(=O)O; Sar = CNCC(=O)O; tBu = CC(C)(C)*
Legend:
[1] = PAMPA (parallel artificial membrane permeability assay); format: in vitro ADME; settings: for Papp at 18 hours, 50 µM: PAMPA
Outline: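 Artificial membrane was 10% (w/v) egg lecithin plus 0.5% (w/v) cholesterol in dodecane on a PVDF filter. A 10 mM DMSO stock was added at 0.5% (v/v) to donor buffer (50 mM MOPSO, pH 6.5, 5.0% glycocholic acid). After 18 h at 37 °C, LC/MS or LC/UV gave donor and acceptor levels for Pe.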

[2] = Metabolic stability in human hepatic microsome; format: in vitro ADME; settings: microsomes
[3] = membrane permeation rate (Pe), 50 mM MOPSO buffer pH 6.5 with 5.0% glycocholic acid, 37° C., 18 hours, read-out: iPAMPA Pe
[4] = pH 7.4, human hepatic microsome, NADPH(+), read-out: CL NADPH(+)
[5] = membrane permeation rate (Pe), 50 mM MOPSO buffer pH 6.5 with 5.0% glycocholic acid, 37° C., 18 hours

CC[C@H](C)[C@H]1C(=O)N[C@@H](C)C(=O)N(C)[C@@H](Cc2ccccc2)C(=O)N[C@@H]([C@@H](C)O)C(=O)N(C)CC(=O)N(C)[C@@H](Cc2ccccc2)C(=O)N(C)[C@@H](CC(C)C)C(=O)N[C@H](C(=O)N2CCCCC2)CC(=O)N(C)CCC(=O)N[C@@H](CC(C)C)C(=O)N(C)[C@@H](CC(C)C)C(=O)N1C [DP-48] ([NMeβAla]L[NMeL][NMeI]A[NMeF]T[Sar][NMeF][NMeL]D-Piperidide; lactam N-11)
Papp at 18 hours, 50 µM ([1]; pH 6.5): 33 ×10⁻⁶ cm/s
microsomal CLint at 1 uM ([2]; human, pH 7.4, CL NADPH(+)): 32 µL/min/mg

CC[C@H](C)[C@@H]1NC(=O)[C@H](C)N(C)C(=O)[C@H]([C@@H](C)O)NC(=O)[C@H](CC(C)C)N(C)C(=O)[C@H](Cc2ccccc2)NC(=O)[C@H](C(C)C)N(C)C(=O)[C@@H](C)N(C)C(=O)C[C@@H](C(=O)N(C)[C@@H](Cc2ccccc2)C(=O)N[C@@H](C)C(=O)N2CCCCC2)NC(=O)[C@H](C)N(C)C(=O)[C@H](CC(C)C)N(C)C1=O [DP-453] ([dNMeA][NMeV]F[NMeL]T[NMeA]I[NMeL][NMeA]D[NMeF]A-Piperidide; lactam N-10)
Papp at 18 hours, 50 µM [1, 3]: 25 ×10⁻⁶ cm/s
microsomal CLint at 1 uM [2, 4]: 64 µL/min/mg

CC[C@H](C)[C@H]1C(=O)NCC(=O)N(C)[C@@H](CC(C)C)C(=O)N[C@@H]([C@@H](C)O)C(=O)N2CCC[C@H]2C(=O)N[C@@H](Cc2ccccc2)C(=O)N[C@H](C(=O)N2CCCCC2)CC(=O)N(C)[C@@H](C)C(=O)N[C@@H](Cc2ccccc2)C(=O)N(C)[C@@H](CC(C)C)C(=O)N[C@@H](CC(C)C)C(=O)N1C [DP-236] ([NMeA]F[NMeL]L[NMeI]G[NMeL]TPFD-Piperidide; lactam N-11)
iPAMPA Pe [1, 5]: 7.0E−05
microsomal CLint at 1 uM [2, 4]: 79 µL/min/mg

CC[C@H](C)[C@@H]1NC(=O)[C@H](C)N(C)C(=O)[C@H](Cc2ccccc2)N(C)C(=O)[C@H](C)N(C)C(=O)C[C@@H](C(=O)N(C)[C@@H](Cc2ccccc2)C(=O)N(C)[C@@H](Cc2ccccc2)C(=O)N[C@@H](C)C(=O)N2CCCCC2)NC(=O)[C@H](C)N(C)C(=O)[C@H](CC(C)C)N(C)C(=O)[C@H](C)N(C)C(=O)[C@H]([C@@H](C)O)NC(=O)[C@H](C)N(C)C1=O [DP-395] ([NMeA][NMeF][NMeA]I[NMeA]T[NMeA][NMeL][NMeA]D[NMeF][NMeF]A-Piperidide; lactam N-10)
Papp at 18 hours, 50 µM [1, 3]: 19 ×10⁻⁶ cm/s
microsomal CLint at 1 uM [2, 4]: 23 µL/min/mg

CC[C@H](C)[C@H]1C(=O)N[C@@H](C)C(=O)N(C)[C@@H](CC(C)C)C(=O)N[C@@H](COC(C)(C)C)C(=O)N(C)[C@@H](CC(C)C)C(=O)N[C@H](C(=O)N2CCCCC2)Cc2ccc(cc2)CCCCCC(=O)N[C@@H](Cc2ccccc2)C(=O)N(C)[C@@H](Cc2ccccc2)C(=O)N(C)[C@@H](CC(C)C)C(=O)N[C@@H]([C@@H](C)O)C(=O)N(C)[C@@H](C)C(=O)N1C [DP-873] (F[NMeF][NMeL]T[NMeA][NMeI]A[NMeL]S(tBu)[NMeL][Phe(4-(CH2)5CO)]-Piperidide; lactam N-11)
iPAMPA Pe [1, 5]: 1.0E−07
microsomal CLint at 1 uM [2, 4]: 39 µL/min/mg

CC[C@H](C)[C@H]1C(=O)N(C)[C@@H](C(C)C)C(=O)N(C)CC(=O)N[C@@H]([C@@H](C)O)C(=O)N[C@H](C(=O)N2CCCCC2)CC(=O)N[C@H](C)C(=O)N(C)[C@@H](C)C(=O)N(C)[C@@H](CC(C)C)C(=O)N[C@@H](CC(C)C)C(=O)N(C)[C@@H](Cc2ccccc2)C(=O)N[C@@H](Cc2ccccc2)C(=O)N1C [DP-98] ([dA][NMeA][NMeL]L[NMeF]F[NMeI][NMeV][Sar]TD-Piperidide; lactam N-11)
Papp at 18 hours, 50 µM [1, 3]: 26 ×10⁻⁶ cm/s
microsomal CLint at 1 uM [2, 4]: 27 µL/min/mg

CC[C@H](C)[C@H]1C(=O)N[C@@H](C)CC(=O)N(C)[C@H](C)C(=O)N(C)[C@@H](CC(C)C)C(=O)N[C@@H]([C@@H](C)O)C(=O)N(C)CC(=O)N[C@@H](COC(C)(C)C)C(=O)N(C)[C@@H](CC(C)C)C(=O)N1C [DP-826] (cyclo([NMeI][β3hA][dNMeA][NMeL]T[Sar]S(tBu)[NMeL]))
Papp at 18 hours, 50 µM [1, 3]: 30 ×10⁻⁶ cm/s
microsomal CLint at 1 uM [2, 4]: 213 µL/min/mg

Source: US9409952B2, “Peptide-compound cyclization method” (Chugai Seiyaku Kabushiki Kaisha, priority 2011, dated 2016)
